{"source": "patent US6090542A", "about": "“Process for inhibiting the transcription of genes” (Boehringer Ingelheim International GmbH, priority 1993, dated 2000)", "key": {"IL-6": {"system": "IL-6", "assay": "IL-6 in the cell supernatant of stimulated HeLa cells (ELISA)", "format": "cell-based, human", "settings": "stimulus alone (TNF 200 E/ml or PMA 50 ng/ml)", "protocol": "(§1) The principle of the test arrangement corresponded to that of the previous examples.\n(§2) The cells were stimulated--with or without 30 minutes of pre-treatment with 100 μmol NBIG--with TNF (200 E/ml) or with PMA (50 ng/ml) and the concentration of IL-6 or IL-8 was measured in the cell supernatant at various intervals using ELISA (British Biotechnology Products Ltd.)."}, "IkB-α [1]": {"system": "IkB-α", "assay": "Western blot analysis of IkB-α in HeLa cells after TNF-α stimulation", "format": "cell-based, human", "protocol": "(§3) The 7OZ/3 cells were treated with 50 E/ml IL-1β (Boehringer Mannheim) or with 15 μg/ml LPS (Sigma). Human HeLa cells were cultivated in DMEM, supplemented with 10%FCS and 1% L-glutamine and treated with 200 E/ml human recombinant TFN-α (genzyme).\nAs protease inhibitors Z-Ile-Glu(Ot-Bu)-Ala-leucinal (NBIG) and the chemically related substance Z-Leu-leucinal (Cbz-L-L) were used (Z standing for benzyloxycarbonyl).\nIn the figure the slower migrating form of IkB-α is identified with an asterisk."}, "IL-8": {"system": "IL-8", "assay": "IL-8 in the cell supernatant of stimulated HeLa cells (ELISA)", "format": "cell-based, human", "settings": "120', stimulus alone (TNF 200 E/ml or PMA 50 ng/ml)", "protocol": "as §1, §2"}, "IkB-α [2]": {"system": "IkB-α", "assay": "Western blotting of IkB-α in extracts of 7OZ/3 cells", "format": "cell-based, mouse"}, "NF-KB [3]": {"system": "NF-KB", "assay": "EMSA of NF-KB DNA binding activity in total cell extracts of stimulated 7OZ/3 cells", "format": "cell-based, mouse", "settings": "7OZ/3 cells, one-hour treatment with cycloheximide, no PMA", "protocol": "7OZ/3 cells (ATCC No. TIB 158) were cultivated in RPMI-1640 medium (Gibco BRL), supplemented by 10% FCS (Gibco BRL) and 50 μM 2-mercaptoethanol. 2 ml aliquots with approx. 2-3×10^6 of suspended cells was treated with 50 ng/ml PMA (Sigma) for various periods. The treatment was interrupted by immediate centrifugation (5 s in an Eppendorf Microfuge) and cooling on ice. The cell pellets were lysed with 60 μl of a high-salt extraction buffer, containing the non-ionic detergent nonidet P-40 (Baeuerle and Baltimore, 1988b). The supernatant of a 15 minute centrifugation at 13.000 rpm in an Eppendorf Microfuge was analysed by Western blotting and EMSA (electrophoretic mobility shift assay). For SDS-PAGE and Western blotting 30 μl aliquots of the extracts were mixed with 15 μl SDS sample buffer (Laemmli, 1970), boiled and subjected to a SDS-PAGE on 12.5% polyacrylamide minigels (Biorad). The proteins were transferred by using a so-called semi-dry blotting device (Biorad; 1 h at 15V/2.5 mA/cm2) from the gels onto IMMOBILON-P-filter (0.45 μm; Millipore). The efficiency of the blot was checked by protein staining of the filters with Ponceau S (Serva). The filters were blocked overnight in a Tris-buffered saline solution, containing 0,1% (v/v) TWEEN-20 (TBST), 5% low-fat milk powder (Nestle) and 1% BSA. The filter was then incubated for one hour at ambient temperature with anti IkB-α IgG in a dialysed eluate of the IkB-α affinity column and diluted by 1:100 in the blocking buffer. After washing for 30 minutes in TBST the filter was incubated in a 1:4000 solution of goat-anti-rabbit IgG/horseradish-peroxidase conjugate (Biorad) in blocking buffer. After washing for 30 minutes in TBST the filter was treated with ECL detecting reagent (Amersham) and exposed (Kodak XR film, less than 1 minute). For EMSA 2 μl aliquots of the extracts were added to a binding mixture, resulting in a final concentration of […], […], pH 7.9, […] dithiothreitol, […] phenylmethylsulfonylfluoride (PMSF), 0.2% NONIDET P-40, 5% FICOLL, 20 μg BSA, 3 μg Poly (dl-dC) and 10.000 cpm (Cerenkov counting method) of a ^32 P marked double-stranded KB-oligonucleotide probe (Gibco BRL). The specificity of the protein DNA complex was confirmed by competition experiments and supershifting with a polyclonal antibody, recognising the C-terminal 100 amino acids of Rel-A (p65). After 20 minutes of incubation on ice the samples were subjected to electrophoresis on native 4% polyacrylamide gels, run in 0.5× TBE. The dried gels were exposed (Kodak XR film, -70° C., overnight).\nCell cultures, extract production, SDS-PAGE and Western blotting were carried out according to example 1. The cells were […] in 25 μm TPCK or TLCK (both from Sigma), and pre-treated in dimethylsulfoxide (DMSO). The control cultures received an equivalent amount of DMSO.\nThe results of the experiments are shown in FIG. 4: A: Effect of TPCK on the induction by PMA. The cells were treated without (left panel) or in presence of TPCK with PMA for the stipulated periods. The cell extracts were tested for the DNA binding activity of NF-KB using EMSA (top panel) and for the IkB-α protein quantity using Western blotting (bottom panel). The position of the NF-KB-DNA complex in a section of a fluorogram of a native gel is shown by a filled arrowhead. […] B: Effect of TPCK on the activation of NF-KB by IL-1β (I), LPS (L) and PMA (P) in 7OZ/3 cells; in control cells (Co). The cells were treated with TPCK for 10 minutes before stimulation (lanes 6-8) or for an additional 10 minutes after stimulation (lanes 10-12; 30 minutes with IL-1β and PMA or 60 minutes with LPS). The total cell extracts of control cells (lanes 1-4) and cells treated with TPCK (lanes 5-12) were tested for the DNA binding activity of NF-KB using EMSA; a section of a fluorogram of a native gel is shown. […] C: Effect of TLCK on the activation of NF-KB by PMA. […]"}, "7OZ/3 cells": {"system": "7OZ/3 cells", "settings": "10 μg/ml; cited from earlier work"}, "NF-KB [4]": {"system": "NF-KB", "assay": "EMSA of NF-KB activation in HeLa cells after TNF-α stimulation", "format": "cell-based, human", "settings": "HeLa cells, TNF-α stimulation, Cbz-L-L", "protocol": "as §3, with “The methods used in this example for the culture of the 7OZ/3 cells and the production of the cell extracts were implemented as stated in example 1. The” for “The”\nThe test arrangement in this example corresponded to that of example 4; HeLa cells were cultivated as stated in example 2 and TNF-α was used as inductor for the NF-KB activation. As protease inhibitors Z-Ile-Glu(Ot-Bu)-Ala-leucinal (NBIG) and the chemically related substance Z-Leu-leucinal (Cbz-L-L) were used (Z standing for benzyloxycarbonyl).\na) The electrophoretic mobility shift assays were carried out by using a ^32 P labelled oligonucleotide with a NF-KB binding site on whole cell extracts from HeLa cells. […] The ID50 value for NBIG was approx. 50 μM (FIG. 7B)."}}}
{"compound": "TNF-α", "values": [{"measurement": "IL-6", "setting": "IL-6; 15'", "value": 875, "unit": "pg/mL"}, {"measurement": "IL-6", "setting": "IL-6; 120'", "value": 6750, "unit": "pg/mL"}, {"measurement": "decay of IkB-α", "setting": "IkB-α [1]; HeLa cells", "value": "induced a decay"}, {"measurement": "time after stimulation at which most of the IkB-α had decayed", "setting": "IkB-α [1]; HeLa cells", "value": "≤ 5", "unit": "min"}, {"measurement": "IL-8", "setting": "IL-8", "value": 52, "unit": "pg/mL"}]}
{"compound": "IL-1β: inflammatory cytokine used as inducer of NF-KB", "values": [{"measurement": "decay of IkB-α", "setting": "IkB-α [2]; 7OZ/3 cells", "value": "induced a decay"}]}
{"compound": "C=C1[C@@H](O)[C@@H]2O[C@]3(CC[C@H](/C=C/[C@@H](C)[C@@H]4CC(C)=C[C@@]5(O[C@H](C[C@@](C)(O)C(=O)O)CC[C@H]5O)O4)O3)CC[C@H]2O[C@@H]1[C@@H](O)C[C@H](C)[C@H]1O[C@@]2(CCCCO2)CC[C@H]1C", "note": "[okadaic acid]", "values": [{"measurement": "quicker migrating non-phosphorylated form of IkB-α", "setting": "IkB-α [1]; 100 nM, together with NBIG", "value": "disappear completely"}]}
{"compound": "C[C@@H]1C[C@@H]([C@H](O)CC2CC(=O)NC(=O)C2)C(=O)[C@@H](C)C1", "note": "[cycloheximide]", "values": [{"measurement": "binding of NF-KB to DNA", "setting": "NF-KB [3]", "value": "induced only slightly"}, {"measurement": "reoccurrence of IkB-α 40 minutes after PMA treatment", "setting": "IkB-α [2]; 7OZ/3 cells pre-treated with cycloheximide, then PMA", "value": "prevents"}, {"measurement": "IkB-α detected by Western blotting", "setting": "IkB-α [2]; 7OZ/3 cells, one-hour treatment with cycloheximide, no PMA", "value": "large amounts"}, {"measurement": "half-life of IkB-α", "setting": "IkB-α [2]; cycloheximide-treated 7OZ/3 cells, without PMA, quantitative Western blotting", "value": "approx. 138 minutes"}, {"measurement": "inhibition of protein synthesis", "setting": "7OZ/3 cells", "value": 90, "unit": "%"}]}
{"compound": "CC(C)CC(C=O)NC(=O)C(CC(C)C)NC(=O)OCc1ccccc1", "note": "[Cbz-L-L, Z-Leu-leucinal]", "values": [{"measurement": "prevention of NF-KB-DNA complex formation", "setting": "NF-KB [4]", "value": "did not occur"}, {"measurement": "inhibition of IkB-α degradation and accumulation of modified IkB-α", "setting": "IkB-α [1]; HeLa cells, TNF-α, 50 μm", "value": "does not show these effects"}]}
